Experimental data published in US9198894B2, “Uses of 15-benzylidene-14-deoxy-11,12-didehydroandrographolide derivatives in the preparation of antineoplastic drugs” (Zhengzhou University, priority 2010, dated 2015).
Like-named read-outs stand apart in the source and are kept apart here. Marks after values point to notes of the source that are not given here.

Legend:
[1] = tested on: A549 human lung adenocarcinoma; experiment: Colony formation assay, A549; type: cell-based; details: for IC50: read-out: Inhibition against tumor cell colony formation IC50
Protocol: (§1) 1) Cell lines: Cell lines of SGC-7901 human gastric cancer, A549 human lung adenocarcinoma and Hela human cervical carcinoma were purchased from the Type Culture Collection of the Chinese Academy of Sciences, Shanghai, China.
(§2) 3) Method: Colony formation assay was used. The cells were trypsinized to generate a single-cell suspension and seeded in a 6-well plate at a density of 100 cells/well, then drug-containing medium was added to the well to make the final concentration of compound to 0, 1.25, 2.50, 5.00, 7.50, 10.00 μmol/L, respectively. The experiments were performed in duplicate, and the cells were cultured at 37 in a humidified atmosphere with 5% CO2. Terminate cell culture when the clones can be seen in the culture plate, then remove the culture medium, and wash twice with PBS, fix the cells with methanol (5 ml/well) for 15 min and stain the cells with hematoxylin-eosin stain. The number of clones which comprised more than 50 cells was counted under a TS100-F-PH microscope (Nikon Company, Japan). Calculate relative colony formation ratio (%) and the IC50 values. Relative colony formation ratio (%)=(colony number of drug-administration well/colony number of control well)×100%.

[2] = tested on: Hela human cervical carcinoma; experiment: Colony formation assay, Hela; type: cell-based; details: for IC50: read-out: Inhibition against tumor cell colony formation IC50
Protocol: as §1, §2

[3] = tested on: SGC-7901 human gastric cancer; experiment: Colony formation assay, SGC-7901; type: cell-based; details: for IC50: read-out: Inhibition against tumor cell colony formation IC50
Protocol: as §1, §2

[4] = tested on: 5637 human urinary bladder cancer cells; experiment: Wound healing (two-dimensional migration) assay, 5637; type: cell-based; details: 5637, 10.00 μmol/l, 24 h (FIG. 1C)
Protocol: (§3) 1) Cell lines: Cell lines of 5637 human bladder carcinoma, Eca-109 human esophageal carcinoma, HT29 human colon cancer, SGC-7901 human gastric cancer, A549 human lung adenocarcinoma and PC-3 human prostate carcinoma were purchased from the Type Culture Collection of the Chinese Academy of Sciences, Shanghai, China.
(§4) 3) Methods: The cells were trypsinized to generate a single-cell suspension and seeded in 96-well plates (200 μl/well), and incubated with medium containing 10% fetal bovine serum at 37 in a humidified atmosphere with 5% CO2. Following a 24 h incubation, the cells were starved for an additional 12 h in low-serum media (1% FBS). The cultures of Eca-109, HT29, 5637, SGC-7901, A549 and PC-3 were then scratched away with a 200-μl plastic pipette tip and rinsed twice with PBS to remove wound-derived loose and dislodged cells. The cells were cultured in replaced medium without or with compounds at final concentrations of 0, 2.50, 5.00 and 10.00 μmol/L, respectively. At least seven randomly selected views along the scraped line in each well were photographed immediately and 24 h and 36 h after incubation using a digital camera at 50× magnification. The average scraped area in each well under each treatment condition was measured, and the percentage of inhibition against cell migration was calculated. % of inhibition=1−(A0−At)/(A′0−A′t)×100%, where, A0 and At are the areas of wound with compound treatment measured immediately and 24 or 36 h post-injury, respectively; A′0 and A′t are the areas of wound without compound treatment measured immediately and 24 or 36 h post-injury, respectively.

[5] = tested on: A549 human lung carcinoma cells; experiment: Wound healing (two-dimensional migration) assay, A549; type: cell-based; details: A549, 10.00 μmol/l, 36 h (FIG. 1E)
Protocol: as §3, §4

Murine hepatoma H22 = experiment: Anti-tumor and anti-angiogenesis effects on H22 tumor-bearing mice; type: in vivo, mouse; details: H22 mice, 1.35 mmol/kg ig once a day 7 d
Description: 1) Animals: Kunming mice of clean grade, half male and half female, body weight 20±2 g, were purchased from the experimental animal center of Henan Province, China. Qualified Certificate number: SCXK (Yu) 2005-0001.
2) Cells: Murine hepatoma H22 cells were presently obtained from Henan Academy of Medical and Pharmaceutical Sciences (Zhengzhou, China).
Cyclophosphamide (Cyc) was produced by Tianjin Jingshi Pharmaceutical Co., Ltd., China (approval number of medicine: H12021006). Gelatin and carmine red were supplied by Sigma Chemical (St. Louis, Mo., U.S.A). All other chemicals and reagents were of the highest commercial grade available. All drugs were prepared with normal saline emulsified with Tween-80 (0.1% v/v) and dispersed in carboxymethylcellulose (0.5% v/v). 10% (W/V) carmine solution was prepared with salt solution containing 5% (W/V) gelatin which should be used immediately after preparation. The rest of medicines and reagents and the methods for preparation were the same with that of EXAMPLE 1.
4) Method: The H22 cells after in vivo passage for 7 d were diluted with physiological saline to adjust to a concentration of 1×10^7/mL, injected to the armpit of right forelimb of mice subcutaneously (0.2 ml/mouse), then mice were divided into 10 groups (n=12; 6 male and 6 female per group) randomly. 24 h later each group of mice was administrated intragastrically (ig; 0.2 ml/10 g) once a day continuously for 7 d with vehicle (tumor control group and control group), Cyc (standard control), or compounds at the tested doses. After the last drug administration and a following fasting of 8 h, each mouse was anesthetized with 1% pentobarbital in normal saline solution (80 mg/kg; ip). Mice of control group were injected with 5% gelatin in normal saline solution (40) via the tail vein (1 ml/mouse); whereas mice of other groups were injected replaced by 10% carmine red and 5% gelatin in normal saline solution (40). Mice were killed, then freezed in a refrigerator at −20 for 2 h to solidify. Tumors were segregated, weighed and homogenized with 3 M NaOH solution (10 ml/g tumor). The homogenate supernatant was prepared by being centrifuged for 20 min at 14000 rpm, and the absorbance at 490 nm was assayed using a PowerWaveX Microplate Scanning Spectrophotometer (Bio-tek Instruments, Inc). The carmine red content was calculated based on the standard curve. The vascular index (VI) expressed as milligram of carmine red per gram of tumor tissue. The inhibition ratio (IR) of tumor growth was calculated using the formula: IR (%)=[(Wc−Wt)/Wc]×100%, where Wc is the average tumor weight of the control group, and Wt is that of the drug treatment group. Data were expressed as mean±SD and statistical analysis was performed by SPSS Statistics 17.0 using a one-way analysis of variance (ANOVA) followed by unpaired t-test. A value of P<0.05 was considered statistically significant.

S180 murine sarcoma = experiment: Growth, invasion and metastasis of S180 sarcoma in tumor-bearing mice; type: in vivo, mouse
Protocol: 1) Animals: Be the same with that of EXAMPLE 4.
2) Cells: The S180 murine sarcoma cells were obtained from Henan Academy of Medical and Pharmaceutical Sciences (Zhengzhou, China).
4) Method: Mice were randomly divided into 10 groups (n=12). The S180 cells after in vivo passage for 7 d were diluted with physiological saline to adjust to a concentration of 1×10^7/mL. The inoculation of tumor cells was conducted in two batches, those of tumor control group I and groups treated with compounds 1 or 3 were in batch 1, those of tumor control group II, Cyc group and the compound 2 groups were in batch 2. The mice were injected with S180 cells (0.2 ml/mouse) into the armpit of right forelimb subcutaneously, and 24 h later each group of mice was administrated intragastrically (ig; 0.2 ml/10 g) once a day continuously for 9 d with vehicle (tumor control group), Cyc (standard control), or compounds at the tested doses. On day 10, kill the mice, observe and record the degree of invasion and metastasis of tumor tissues, then the tumor tissues were segregated and weighed. The inhibition ratio (IR) of tumor growth was calculated by the following formula: IR (%)=[(Wc−Wt)/Wc]×100%, where Wc is the average tumor weight of the control group, and Wt is that of the treatment group. Data were expressed as mean±SD and statistical analysis was performed by SPSS Statistics 17.0 using a one-way analysis of variance (ANOVA) followed by unpaired t-test. A value of P<0.05 was considered statistically significant.

[6] = tested on: Eca-109 human esophageal carcinoma cells; experiment: Wound healing (two-dimensional migration) assay, Eca-109; type: cell-based; details: Eca-109, 10.00 μmol/l, 24 h (FIG. 1A)
Protocol: as §3, §4

Row | Compound | Inhibitory effect on two-dimensional migration [4] | Inhibitory effect on two-dimensional migration [5] | Inhibition of colony formation compared with andrographolide [1] | IC50 [1] [µM] | Inhibition of colony formation compared with andrographolide ([2]; Hela) | IC50 ([2]; Hela) [µM] | Inhibition of colony formation compared with andrographolide [3] | IC50 [3] [µM] | Inhibitory effect on two-dimensional migration [6] | further results
1 | C=C1CC[C@@H]2[C@](C)(CO)[C@H](O)CC[C@@]2(C)[C@@H]1C/C=C1/C(=O)OC[C@H]1O [Compound 1, Andrographolide] | stronger inhibition | stronger inhibition | – | – | – | – | – | – | – | IC50 ([1]; Homo sapiens): 11.3 µM; IC50 ([2]; Homo sapiens, HeLa): 2.91 µM; IC50 ([3]; Homo sapiens): 19 µM; IR (%) of tumor growth (Murine hepatoma H22): 31.70* %; Carmine contents (Murine hepatoma H22; mean ± s): 4.66 ± 2.58; VI (vascular index, mg carmine red per g tumor tissue) (Murine hepatoma H22; mean ± s): 5.10 ± 2.13 mg/g; IR (%) of S180 sarcoma growth (S180 murine sarcoma; 1.35 mmol/kg ig once a day 9 d): 17.18 ± 3.21 %; Average invasion and metastasis grade (S180 murine sarcoma; S180, grades 0-4, 1.35 mmol/kg): 0.67; Mouse Number Grade 0 (S180 murine sarcoma; S180 invasion, Grade 0: no invasion, 1.35 mmol/kg): 6; Mouse Number Grade 1 (S180 murine sarcoma; S180 invasion, Grade 1: invasion to right forelimb, 1.35 mmol/kg): 4; Mouse Number Grade 2 (S180 murine sarcoma; S180 invasion, Grade 2: right forelimb and the left side of body, 1.35 mmol/kg): 2; Mouse Number Grade 3 (S180 murine sarcoma; S180 invasion, Grade 3: also the ribs and muscles in chest, 1.35 mmol/kg): 0; Mouse Number Grade 4 (S180 murine sarcoma; S180 invasion, Grade 4: invasion into chest or abdominal cavity, 1.35 mmol/kg): 0
2 | C=C1CCC2C(C)(CO)C(O)CCC2(C)C1C=CC1=CC(=Cc2ccc(OC)cc2)OC1=O (stereo not drawn) [Compound 7] | stronger inhibition | stronger inhibition | remarkably stronger than that of andrographolide | 3.31 | remarkably stronger than that of andrographolide | 2.4 | remarkably stronger than that of andrographolide | 2.45 | – | –
3 | C=C1CCC2C(C)(CO)C(O)CCC2(C)C1C=CC1=CC(=Cc2ccc(Br)cc2)OC1=O (stereo not drawn) [Compound 6] | – | – | remarkably stronger than that of andrographolide | 1.67 | remarkably stronger than that of andrographolide | 1.98 | remarkably stronger than that of andrographolide | 2.63 | – | –
4 | C=C1CCC2C(C)(CO)C(O)CCC2(C)C1C=CC1=CC(=Cc2ccc(F)cc2)OC1=O (stereo not drawn) [Compound 5] | – | much stronger than that of other tumor cells | remarkably stronger than that of andrographolide | 2.27 | remarkably stronger than that of andrographolide | 1.47 | remarkably stronger than that of andrographolide | 2.07 | much stronger than that of other tumor cells | –
5 | C=C1CCC2C(C)(COC(=O)CCC(=O)O)C(OC(=O)CCC(=O)O)CCC2(C)C1C=CC1=CC(=Cc2ccc(Cl)cc2)OC1=O (stereo not drawn) [Compound 8] | – | much stronger than that of other tumor cells | – | – | – | – | – | – | much stronger than that of other tumor cells | –
